Biological target: T1, full-length human PRMT1 isoform 1 (GST-tagged) (Homo sapiens, UniProt Q99873)
T1 construct: GST-tagged PRMT1 was eluted with 50 mM Tris, 2 mM glutathione, pH 7.8, dialysed in buffer A and concentrated; made in house; host or cells: High Five insect cells (baculovirus)
Assay: PRMT1 biochemical assay (3H-SAM Flashplate, histone H4 36-50 peptide)
Conditions: 0.5 nM PRMT1, 30 min preincubation, 20 nM peptide
In short: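 GST-PRMT1 (0.5 nM) preincubated 30 min at room temperature with compound in bicine buffer pH 7.6. Reaction then run with 200 nM 3H-SAM plus 1.5 uM SAM and 20 nM biotinylated H4 36-50 peptide, 2% DMSO. Stopped with excess cold SAM, and methylated peptide captured on streptavidin Flashplates for counting; % inhibition versus DMSO and 1 mM SAH controls, 3- or 4-parameter fit.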

T1 sequence (Q99873 with tags, fused parts or gaps): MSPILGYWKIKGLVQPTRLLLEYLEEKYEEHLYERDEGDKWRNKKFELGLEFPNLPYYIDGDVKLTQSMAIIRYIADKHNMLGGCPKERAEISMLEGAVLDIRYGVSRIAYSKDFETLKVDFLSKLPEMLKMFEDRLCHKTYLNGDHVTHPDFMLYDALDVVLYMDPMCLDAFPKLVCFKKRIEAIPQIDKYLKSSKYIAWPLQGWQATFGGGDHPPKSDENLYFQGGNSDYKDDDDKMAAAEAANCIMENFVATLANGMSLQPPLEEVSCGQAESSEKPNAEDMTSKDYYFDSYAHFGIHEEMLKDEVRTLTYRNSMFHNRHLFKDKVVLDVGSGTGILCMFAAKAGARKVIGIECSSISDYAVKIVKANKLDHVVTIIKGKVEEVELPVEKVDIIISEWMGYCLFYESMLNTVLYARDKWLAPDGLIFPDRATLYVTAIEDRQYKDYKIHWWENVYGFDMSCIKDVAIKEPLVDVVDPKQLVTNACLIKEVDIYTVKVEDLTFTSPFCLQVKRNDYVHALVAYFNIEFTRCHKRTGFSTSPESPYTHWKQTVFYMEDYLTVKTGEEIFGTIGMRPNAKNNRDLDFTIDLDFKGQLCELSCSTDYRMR

`CC[C@H]1CC[C@@H](c2n[nH]cc2CN(C)CCNC)CC1` [compound 1] showed an IC50 of 0.0048 µM.

`CCOCCOCC1(COCCOCC)CCC(c2n[nH]cc2CN(C)CCNC)CC1` [compound 39, N1-((3-(4,4-bis((2-ethoxyethoxy)methyl)cyclohexyl)-1H-pyrazol-4-yl)methyl)-N1,N2-dimethylethane-1,2-diamine] showed an IC50 of 0.0312 µM.

`CNCCN(C)Cc1c[nH]nc1C1CCC(COCCC2CCOCC2)(COCCC2CCOCC2)CC1` [compound 40] showed an IC50 of 0.0207 µM.

For `CNCCN(C)Cc1c[nH]nc1C1CCC(COCC2CC2)(COCC2CC2)CC1` [compound 41, N1-((3-(4,4-bis((cyclopropylmethoxy)methyl)cyclohexyl)-1H-pyrazol-4-yl)methyl)-N1,N2-dimethylethane-1,2-diamine], the IC50 was 0.00433 µM.

`CN(C)CCN(C)Cc1c[nH]nc1[C@H]1CC[C@@]2(CC1)CC(C)(C)CO2` [compound 42, N1-((3-((5S,8S)-3,3-dimethyl-1-oxaspiro[4.5]decan-8-yl)-1H-pyrazol-4-yl)methyl)-N1,N2,N2-trimethylethane-1,2-diamine] showed an IC50 of 0.0315 µM.

`CN(C)CCN(C)Cc1c[nH]nc1[C@H]1CC[C@]2(CC1)CC(C)(C)CO2` [compound 43, N1-((3-((5r,8r)-3,3-dimethyl-1-oxaspiro[4.5]decan-8-yl)-1H-pyrazol-4-yl)methyl)-N1,N2,N2-trimethylethane-1,2-diamine] was tested, and the IC50 was 0.057 µM.

`CNCCN(C)Cc1c[nH]nc1C1CCC(CO)(CO)CC1` [compound 44, (4-(4-((methyl(2-(methylamino)ethyl)amino)methyl)-1H-pyrazol-3-yl)cyclohexane-1,1-diyl)dimethanol] showed an IC50 of 0.0213 µM.

`CNCCN(C)Cc1c[nH]nc1C1CCC(COC)(COCC2CCOCC2)CC1` (stereo not drawn) [compound 45] showed an IC50 of 0.033 µM.

For `CNCCN(C)Cc1c[nH]nc1C1=CCC2(CC1)CC(C)(C)CO2` (stereo not drawn) [compound 46, N1-((3-(3,3-dimethyl-1-oxaspiro[4.5]dec-7-en-8-yl)-1H-pyrazol-4-yl)methyl)-N1,N2-dimethylethane-1,2-diamine], the IC50 was 0.0198 µM.

With `CCC1(CC)C[C@]2(CC[C@H](c3n[nH]cc3CN(C)CCNC)CC2)NC1=O` [compound 47, (5s,8s)-3,3-diethyl-8-(4-((methyl(2-(methylamino)ethyl)amino)methyl)-1H-pyrazol-3-yl)-1-azaspiro[4.5]decan-2-one] the IC50 was 0.0152 µM.

In the case of `CCC1(CC)C[C@]2(CC[C@@H](c3n[nH]cc3CN(C)CCNC)CC2)NC1=O` [compound 48, (5r,8r)-3,3-diethyl-8-(4-((methyl(2-(methylamino)ethyl)amino)methyl)-1H-pyrazol-3-yl)-1-azaspiro[4.5]decan-2-one], the IC50 is reported as 0.0353 µM.

`CNCCN(C)Cc1ccnn1[C@H]1CC[C@@]2(CC1)CC(C)(C)CO2` [compound 49, N1-((1-((5s,8s)-3,3-dimethyl-1-oxaspiro[4.5]decan-8-yl)-1H-pyrazol-5-yl)methyl)-N1,N2-dimethylethane-1,2-diamine] showed an IC50 of 0.0193 µM.

Source: patent US20170291905A1, “ARGININE […] INHIBITORS AND USES THEREOF” (Epizyme, Inc., priority 2014, published 2017)
